Laboratory results as given in patent publication US7666900B2, “ABCA1 stabilizer” (Hykes Laboratories LLC, priority 2004, dated 2010).

Experiments:
THP-1 cells = assay: apoAI-dependent HDL-generating reaction in THP-1 cells (cholesterol and phospholipid taken out into the medium); assay type: cell-based, human; details: for Release of HDL Cholesterol (Relative Ratio %) / Release of Phospholipid (Relative Ratio %): apoAI-dependent, non-treated cells = 100
Experimental: (§1) THP-1 cells (human leukemia cells: American Type Culture Collection) were cultured for 72 hours in a 10% FBS-RPMI1640 medium (Iwaki Glass Co., Ltd.) under the presence of PMA (phorbol myristate acetate, 3.2×10^−7 M: Wako Pure Chemical Industries, Ltd.) to obtain differentiated macrophages. Probucol spiroquinone (Synthesis Example 1), probucol diphenoquinone (Synthesis Example 2), or probucol bisphenol (Synthesis Example 3) was added to a medium after being incorporated into acetyl-LDL according to a method of Tsujita, et al. [BIOCHEMISTRY, 35, 13011-13020 (1996)]. The cells were cultured in this medium for 48 hours, and then further cultured for 24 hours in the presence or absence of apoAI. The expression levels of intracellular ABCA1 were assayed according to a method disclosed herein below.
The cultured cells obtained in the same manner as in Assay Example 1 were examined for cholesterol and phospholipid taken out into the medium by the apoAI-dependent HDL-generating reaction, according to a method of Arakawa, et al. [J. LIPID RES., 41, 1952-1962, (2000)]. The results of the drug-treated cells were compared with that of non-treated cells (control). The resulting data were converted into digitized forms as in Assay Example 1, and the relative ratios of the taken out level in the drug-treated cells to that in the non-treated cells were calculated to evaluate the HDL-generating reaction accelerated by the assayed compounds. For comparison, the HDL-generating reaction accelerated by probucol (Wako Pure Chemical Industries, Ltd.) was examined in the same manner as aforementioned.

[1] = Increase of blood HDL level (rabbit), intravenous microemulsion; assay type: in vivo; details: i.v. microemulsion once a day for 7 days, control = 100
Experimental: The microemulsion (0.5 to 10 mL/body) was administered to each group of 4 rabbits via the ear vein once a day for 7 days. To a control group, a microemulsion containing no test drug was administered in the same manner. Blood was collected in the presence of heparin sodium from the ear vein of each rabbit at 3 hours after the last administration. The blood was centrifuged at 2000 g for 10 minutes to separate plasma. The plasma was applied to electrophoresis using Paragon Electrophoresis System (Beckman Coulter, Inc.) to separate plasma lipoprotein, followed by lipid staining. The images on the gel after the lipid staining were examined to covert the plasma HDL level of each rabbit into a digitized form for the evaluation. In reference to the content amount of each compound in the microemulsion, each blood compound level assumed just after the intravenous administration thereof was set as the dose of each compound.

[2] = Toxicity test, oral administration to mice for one week; assay type: in vivo
Excerpt: Probucol spiroquinone, probucol diphenoquinone, and probucol bisphenol were orally administered to mice for one week.

ABCA1 = ABCA1 expression in THP-1 cells (immunoblotting of total membrane fraction); assay type: cell-based, human; details: for ABCA1 Expression Level (Relative Ratio %): PMA-differentiated THP-1 macrophages, compound incorporated into acetyl-LDL, 48 h then 24 h with or without apoAI, non-treated cells = 100; for intracellular ABCA1 expression level compared with non-treated cells (in words): THP-1 cells
Experimental: as §1
The agent-treated cells and non-treated cells were hypotonically disrupted in 5 mM Tris-HCl (pH 8.5), and then centrifuged (650 g for 5 minutes) to precipitate nuclear fractions. The supernatant was centrifuged at 105,000 g for 30 minutes to collect a total membrane fraction. The total membrane was dissolved in a solution containing 0.9 M urea, 0.2% Triton X-100, and 0.1% dithiothreitol, followed by addition of 10% lithium dodecyl sulfate solution at a volume ratio of 1/4. The resultant was subjected to electrophoretic separation using 10% SDS-7% polyacrylamide gel. The separated proteins were transferred and fixed onto PVDF membrane (Bio-Rad), and then subjected to immunoblotting with anti-human ABCA1 rabbit antibody (self-purified by an ordinary technique) to examine expressed ABCA1 protein levels. The obtained bands of the protein were read for density and size with Scion Image (image analysis software: Scion) to convert the results into digitized forms. The relative ratio of the ABCA1 expression level of the drug-treated cells to that of the non-treated cells was calculated to evaluate the ABCA1-expression activity of the assayed compounds.

[3] = Increase of blood HDL level (mouse), oral administration; assay type: in vivo; details: for Plasma HDL Level (Relative Ratio %): 3 hours after last administration, control = 100
Experimental: Probucol spiroquinone (Synthesis Example 1: 50 mg/kg or 150 mg/kg) or probucol diphenoquinone (Synthesis Example 2: 50 mg/kg or 150 mg/kg) suspended in a 0.5% carboxymethylcellulose solution was orally administered to each group of 3 or 4 mice once a day for 7 days. To a control group, only the 0.5% carboxymethylcellulose solution was administered in the same manner. Animals were subjected to laparotomy under ether anesthesia at 3 hours after the last administration, and blood was collected in the presence of heparin sodium from the heart of each mouse. The blood was centrifuged at 2000 g for 10 minutes to separate plasma. The plasma was applied to electrophoresis using Paragon Electrophoresis System (Beckman Coulter, Inc.) to separate plasma lipoprotein, followed by lipid staining. The images on the gel after the lipid staining were examined to covert the plasma HDL level of each mouse into a digitized form for the evaluation.

[4] = dose as assumed blood level 0.14 μM
[5] = dose as assumed blood level 0.57 μM
[6] = 50 mg/kg orally once a day for 7 days
[7] = 150 mg/kg orally once a day for 7 days

SMILES | Release of HDL Cholesterol (Relative Ratio %) (THP-1 cells) [%] | Release of Phospholipid (Relative Ratio %) (THP-1 cells) [%] | Plasma HDL Level (Relative Ratio %) [1, 4] [%] | Plasma HDL Level (Relative Ratio %) [1, 5] [%] | findings in toxicity test [2] | ABCA1 Expression Level (Relative Ratio %) (ABCA1) [%] | intracellular ABCA1 expression level compared with non-treated cells (in words) (ABCA1) | Plasma HDL Level (Relative Ratio %) ([1]; dose as assumed blood level 0.16 μM) [%] | Plasma HDL Level (Relative Ratio %) ([1]; dose as assumed blood level 0.31 μM) [%] | Plasma HDL Level (Relative Ratio %) [3, 6] [%] | Plasma HDL Level (Relative Ratio %) [3, 7] [%] | plasma HDL level increase compared with control group ([3]; 50 or 150 mg/kg orally once a day for 7 days) | apoAI-dependently taken out HDL cholesterol (in words) (THP-1 cells) | level of taken out phospholipid as fraction of non-treated cells (THP-1 cells)
CC(C)(C)c1cc(-c2cc(C(C)(C)C)c(O)c(C(C)(C)C)c2)cc(C(C)(C)C)c1O [Probucol bisphenol, 4,4′-dihydroxy-3,5,3′,5′-tetra-t-butyldiphenyl] | 137 | 144 | 145 | 135 | no abnormal findings were observed | 153 | remarkably elevated | – | – | – | – | – | – | –
CC(C)(C)C1=CC(=C2C=C(C(C)(C)C)C(=O)C(C(C)(C)C)=C2)C=C(C(C)(C)C)C1=O [Probucol diphenoquinone, 3,5,3′,5′-tetra-t-butyl-4,4′-diphenoquinone] | 159 | 200 | – | – | no abnormal findings were observed | 173 | remarkably elevated | 148 | 130 | 113 | 180 | – | – | –
CC1(C)SC2(C=C(C(C)(C)C)C(=O)C(C(C)(C)C)=C2)C2(C=C(C(C)(C)C)C(=O)C(C(C)(C)C)=C2)S1 [Probucol spiroquinone, 2,4,9,11-tetrakis(1,1-dimethylethyl)-14,14-dimethyl-13,15-dithiadispiro[5.0.5.3]pentadeca-1,4,8,11-tetraene-3,10-dione] | 148 | 151 | 157 | 194 | no abnormal findings were observed | 191 | remarkably elevated | – | – | 120 | 124 | about 1.2 times | – | –
CC(C)(Sc1cc(C(C)(C)C)c(O)c(C(C)(C)C)c1)Sc1cc(C(C)(C)C)c(O)c(C(C)(C)C)c1 [Probucol, 4,4′-(isopropylidenedithio)bis(2,6-di-t-butylphenol), reference compound] | 0 | 34 | – | – | – | – | – | – | – | – | – | – | no apoAI-dependently taken out HDL cholesterol was observed | less than ⅓
